Test results: PMC11952451 (bioRxiv, 2025)
“Also recorded” adds a separate entry of the source. One block for each substance: values may come before it.

Key:
viability = conditions: some effects on DNA damage response and mutagenesis; cited from earlier work
B. subtilis DnaN = target: T1, B. subtilis DnaN (Bacillus subtilis, UniProt P05649); type: binding
T1 sequence (P05649 1-378): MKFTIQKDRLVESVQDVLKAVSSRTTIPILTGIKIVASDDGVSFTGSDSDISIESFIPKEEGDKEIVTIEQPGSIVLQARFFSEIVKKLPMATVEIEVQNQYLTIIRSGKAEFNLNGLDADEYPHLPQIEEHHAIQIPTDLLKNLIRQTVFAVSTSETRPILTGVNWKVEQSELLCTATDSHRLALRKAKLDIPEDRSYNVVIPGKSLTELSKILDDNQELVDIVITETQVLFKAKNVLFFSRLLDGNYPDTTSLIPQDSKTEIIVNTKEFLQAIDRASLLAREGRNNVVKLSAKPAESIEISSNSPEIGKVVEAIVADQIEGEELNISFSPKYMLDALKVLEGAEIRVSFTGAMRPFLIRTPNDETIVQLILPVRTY

E. coli clamp = conditions: cited from earlier work

Substance: QLSLPL [εL]
effect on viability (viability): no effect on viability

Substance: ATSMAF [εQ]
effect on viability (viability): no effect on viability

Substance: FAM-Ahx-DDAMGLALDE-NH2
binding (FP response) (B. subtilis DnaN; pH 7.5): lack of binding; also recorded: deficient in clamp binding in FP assays

affinity class in words (B. subtilis DnaN): only micromolar affinity
Substance: QLSLF
affinity class in words (E. coli clamp): submicromolar affinity
